Data on 2 molecules can be found in US20260256923A1, “NEW RECRUITMENT ELEMENT OF UBIQUITIN LIGASE AND USE THEREOF” (SHENZHEN LINGGENE BIOTECH CO., LTD., priority 2023, published 2026).

In data set [1] the target is T1, STAT3 (Homo sapiens, UniProt P40763). In words: STAT3 protein degradation in HOS osteosarcoma cells, western blot. The class given is cell-based. Further details: endogenous in cells. Particulars: 500 nM, 6 h. The method, then:
HOS osteosarcoma cells were incubated with 500 nM double-stranded transcription factor decoy oligonucleotide S3, AS1411, the first PROTAC product 1411-S3-1, the second PROTAC product 1411-S3-2, or AS1411+double-stranded transcription factor decoy oligonucleotide S3. After 6 h, cell samples were collected for protein extraction and subsequent western blot assay.
A general note: Immunoblotting shows a protein as a band on a membrane.

Data set [2] addresses T1, STAT3. In words: STAT3 protein degradation in HeLa cells, western blot. The class given is cell-based. On the set-up: endogenous in cells; host or cells: HeLa. Particulars: 500 nM, 6 h. The method, then:
HeLa cells were incubated with 500 nM said first PROTAC product 1411-S3-1 or second PROTAC product 1411-S3-2, and corresponding cell samples were collected at time gradients of 0 h, 2 h, 6 h, 12 h, 18 h, and 24 h for protein extraction and subsequent western blot assay.
HeLa cells were incubated with the first PROTAC product 1411-S3-1 or the second PROTAC product 1411-S3-2 at concentrations of 0 nM, 100 nM, 200 nM, 500 nM, and 1000 nM. After 6 h, cell samples were collected for protein extraction and subsequent western blot assay. […] The half-maximal degradation concentrations (DC50) of the first PROTAC product 1411-S3-1 and the second PROTAC product 1411-S3-2 against STAT3 at the protein level were 262.5 nM and 136.3 nM, respectively, as shown in FIG. 19.
HeLa cells were incubated with 500 nM double-stranded transcription factor decoy oligonucleotide S3, AS1411, the first PROTAC product 1411-S3-1, the second PROTAC product 1411-S3-2, or AS1411+double-stranded transcription factor decoy oligonucleotide S3. After 6 h, cell samples were collected for protein extraction and subsequent western blot assay.
HeLa cells were incubated with 500 nM said first PROTAC product 1411-S3-1 or second PROTAC product 1411-S3-2, and proteasome inhibitor MG132 was added. After 6 h, cell samples were collected for protein extraction and subsequent western blot assay. […]

Data set [3] deals with metastatic castration-resistant prostate cancer. Particulars: patients carrying AR T878X and/or H875Y mutations; cited from earlier work.

T1 sequence (P40763 whole entry): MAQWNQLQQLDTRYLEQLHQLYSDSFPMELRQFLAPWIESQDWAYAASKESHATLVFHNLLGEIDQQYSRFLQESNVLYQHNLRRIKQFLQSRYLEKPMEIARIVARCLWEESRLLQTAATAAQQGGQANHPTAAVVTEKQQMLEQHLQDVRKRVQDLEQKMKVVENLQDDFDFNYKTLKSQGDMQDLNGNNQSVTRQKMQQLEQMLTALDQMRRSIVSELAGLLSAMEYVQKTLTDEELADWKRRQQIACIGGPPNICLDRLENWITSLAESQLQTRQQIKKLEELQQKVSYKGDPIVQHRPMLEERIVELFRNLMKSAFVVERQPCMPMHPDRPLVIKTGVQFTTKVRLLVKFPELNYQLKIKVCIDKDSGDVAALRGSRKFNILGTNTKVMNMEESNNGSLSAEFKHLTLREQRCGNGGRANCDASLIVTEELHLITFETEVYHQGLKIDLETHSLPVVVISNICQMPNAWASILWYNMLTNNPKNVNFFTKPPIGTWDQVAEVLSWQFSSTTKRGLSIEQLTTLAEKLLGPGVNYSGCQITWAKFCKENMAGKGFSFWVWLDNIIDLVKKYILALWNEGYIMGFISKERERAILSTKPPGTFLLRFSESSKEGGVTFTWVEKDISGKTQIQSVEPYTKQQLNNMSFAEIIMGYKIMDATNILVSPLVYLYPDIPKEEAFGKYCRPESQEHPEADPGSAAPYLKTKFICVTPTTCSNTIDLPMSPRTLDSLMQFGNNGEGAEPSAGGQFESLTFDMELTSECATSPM

“S3: double-stranded transcription factor decoy oligonucleotide that specifically recognizes STAT3; strands SEQ ID NO: 5 and 6 (chain 1 CTTCTGGGAAA; chain 2 TTTCCCAGAAG; DNA, backbone and methylation of C not given here; double-stranded decoy)”: the “protein level of STAT3” value with STAT3 [1] is “only the first PROTAC product 1411-S3-1 and the second PROTAC product 1411-S3-2 can reduce the protein level of transcription factor STAT3”; with STAT3 [2], “only the first PROTAC product 1411-S3-1 and the second PROTAC product 1411-S3-2 can reduce the protein level of transcription factor STAT3”. In the case of `N#Cc1ccc(O[C@H]2CC[C@H](NC(=O)c3ccc(N4CCC(CN5CCN(c6cc7c(cc6F)C(=O)N(C6CCC(=O)NC6=O)C7=O)CC5)CC4)nn3)CC2)cc1Cl` (stereo partly drawn) [ARV-110, Bavdegalutamide], the “antitumor activity and clinical benefit” value in data set [3] was “exhibits potent antitumor activity and clinical benefit”.
